pIC50: −log10 of the molar value.
Legend:
[1] = test system: STZ-induced diabetes in mice; assay: Plasma insulin; type: in vivo; settings: two weeks of treatment, mean of 6 mice ± SEM
[2] = target: α-glucosidase; assay: α-Glucosidase inhibition assay; type: biochemical; settings: for pIC50: read-out: α-Glucosidase IC50, Table 3, DF = 100
[3] = test system: STZ-induced diabetes in mice; assay: Kidney function parameters; type: in vivo; settings: two weeks of treatment, mean of 6 mice ± SEM; for Urea: plasma
[4] = test system: STZ-induced diabetes in mice; assay: Blood glucose in STZ-induced diabetes in mice; type: in vivo; settings: p < 0.05
[5] = test system: STZ-induced diabetes in mice; assay: Liver function markers; type: in vivo; settings: plasma, two weeks of treatment, mean of 6 mice ± SEM
[6] = test system: STZ-induced diabetes in mice; assay: Oxidative stress markers; type: in vivo; settings: plasma, two weeks of treatment, mean of 6 mice ± SEM

For `O=C1CSC(N=C2c3ccccc3-c3nc4cc(F)ccc4nc32)=N1` [Compound 4], the Insulin [1] was 11.44 ± 0.2^a^,^b ng/mL and the pIC50 [2] was 4.99.
In the case of `CCOC(=O)c1sc(N=C2c3ccccc3-c3nc4cc(F)ccc4nc32)nc1C` [Compound 6], the Insulin [1] was 12.28 ± 0.3^a^,^b ng/mL and the pIC50 [2] was 5.52.
For `CC(=O)c1sc(NN=C2c3ccccc3-c3nc4cc(F)ccc4nc32)nc1C` [Compound 8, 1–(2-(2–(7-fluoro-11H-indeno[1,2-b]quinoxalin-11-ylidene)-hydrazineyl)-4-methyl-thiazol-5-yl)-ethan-1-one], the Insulin [1] was 10.5 ± 0.3^a^,^b ng/mL and the pIC50 [2] was 6.01.
With `CCC1SC(NN=C2c3ccccc3-c3nc4cc(F)ccc4nc32)=NC1=O` (centres unmarked) [Compound 16] the Insulin [1] was 9.34 ± 0.3^a^,^b ng/mL, the pIC50 [2] was 5.15 and the “α-glucosidase inhibition IC50” value ([2]; ± SD) was “good activity”.
For `Cc1ccc(S(=O)(=O)NC(=O)NN2CC3CCCC3C2)cc1` (centres unmarked) [Gliclazide], the Creat ([3]; plasma creatinine) was 3.3 ± 0.1^a^,^b, the Urea [3] was 57.5 ± 0.3^a^,^b and the Urea ([3]; listed as gliclazide) was “significant lowering”. For the same molecule, the “Blood sugar levels compared to the STZ-only treatment group” value [4] was “declined significantly”, the ALT [5] was 53.7 ± 0.7^a^,^b and the AST [5] was 39.8 ± 0.3^a^,^b. For the same molecule, the ALT ([5]; listed as gliclazide) was “significant reduction”, the AST ([5]; listed as gliclazide) was “significant reduction” and the Insulin [1] was 14.52 ± 0.4^a^,^b ng/mL. For the same molecule, the Insulin ([1]; listed as gliclazide) was “rose”, the GSH [6] was 3.15 ± 0.05^a^,^b and the MDA [6] was 22 ± 0.2^a^,^b. The GSH ([6]; listed as gliclazide) was “significant elevation” and the MDA ([6]; listed as gliclazide) was “significant reduction”.

From PMC467095 (Journal of Enzyme Inhibition and Medicinal Chemistry, 2024)
